Values after ≈ are worked out from the molar mass of the structure shown.
Tested on: Fusarium fujikuroi
Test: Fungicidal activity against Fusarium fujikuroi assessed as inhibition of mycelial growth incubated for 3 days at 28 degC
Assay type: functional
Conditions: 72 h

Point of comparison: `CC1(C)CCCC[C@H](Cc2ccc(Cl)cc2)[C@@]1(O)Cn1cncn1` (relative stereo), EC90 1.3 µg/mL (≈ 3.74 µM). Against it:
- CC1(C)CC[C@@H](Cc2ccc(Cl)cc2)[C@@]1(O)Cn1cncn1 — 1.5-fold higher, 2 µg/mL (≈ 6.25 µM)
- CC1(C)CCCC[C@@H](Cc2ccc(Cl)cc2)[C@@]1(O)Cn1cncn1 — 3.1-fold higher, 4 µg/mL (≈ 11.5 µM)
- O[C@]1(Cn2cncn2)CCC[C@@H]1Cc1ccc(Cl)cc1 (relative stereo) — 1.6-fold higher, 2.1 µg/mL (≈ 7.2 µM)
- O[C@]1(Cn2cncn2)CCC[C@H]1Cc1ccc(Cl)cc1 (relative stereo) — 120-fold higher, 152 µg/mL (≈ 521 µM)
- O[C@]1(Cn2cncn2)CCCC[C@@H]1Cc1ccc(Cl)cc1 (relative stereo) — higher, > 400 µg/mL
- O[C@]1(Cn2cncn2)CCCC[C@H]1Cc1ccc(Cl)cc1 (relative stereo) — 49-fold higher, 64.3 µg/mL (≈ 210 µM)
- O[C@]1(Cn2cncn2)CCCCC[C@@H]1Cc1ccc(Cl)cc1 (relative stereo) — 1.7-fold higher, 2.2 µg/mL (≈ 6.88 µM)
- O[C@]1(Cn2cncn2)CCCCC[C@H]1Cc1ccc(Cl)cc1 (relative stereo) — higher, > 400 µg/mL
- CC1(C)CC[C@H](Cc2ccc(Cl)cc2)[C@@]1(O)Cn1cncn1 (relative stereo) — 6.5-fold lower, 0.2 µg/mL (≈ 0.625 µM)
- CC1(C)CCC[C@H](Cc2ccc(Cl)cc2)[C@@]1(O)Cn1cncn1 (relative stereo) — 12-fold higher, 15 µg/mL (≈ 44.9 µM)
- CC1(C)CCC[C@@H](Cc2ccc(Cl)cc2)[C@@]1(O)Cn1cncn1 (relative stereo) — 3.4-fold higher, 4.4 µg/mL (≈ 13.2 µM)
